Data taken from patent publication US20120040977A1, “INHIBITORS OF HCV NS5A” (PRESIDIO PHARMACEUTICALS, INC., priority 2009, published 2012).
pEC50: −log10 of the molar value.

System: HCV genotype 1b replicon
Assay: HCV replicon assay (HCV 1b_Huh-Luc/Neo-ET cell line, luciferase readout)
Assay type: cell-based
Conditions: Hepatitis C virus; bicistronic genotype 1b replicon in Huh 7 cells, 72 h incubation, luciferase enzyme activity; read-out: Inhibition of HCV genotype 1b
Procedure: Biological activity of the compounds of the invention was determined using an HCV replicon assay. The HCV 1b_Huh-Luc/Neo-ET cell line persistently expressing a bicistronic genotype 1b replicon in Huh 7 cells was obtained from ReBLikon GMBH. This cell line was used to test compound inhibition using luciferase enzyme activity readout as a measurement of compound inhibition of replicon levels.
On Day 1 (the day after plating cells), each compound is added in triplicate to the cells. Plates are incubated for 72 h prior to determining luciferase levels. Enzyme activity was measured using a Bright-Glo Kit (cat. number E2620) manufactured by Promega Corporation. The following equation was used to generate a percent control value for each compound.
% Control=(Average Compound Value/Average Control)*100
The EC50 value was determined using GraphPad Prism and the following equation:
Y=Bottom+(Top−Bottom)/(1+10̂((LogIC50−X)*HillSlope))
EC50 values of compounds are determined several times in the replicon assay. […]

SMILES	pEC50
COC(=O)N[C@@H](C(=O)N1CCC[C@H]1C(=O)NCc1ccc(-c2ccc(-c3cnc([C@@H]4CCCN4C(=O)[C@H](NC(=O)OC)c4ccccc4)[nH]3)cn2)cc1)c1ccccc1 [Compound 118]	> 9.00
O=C(N[C@@H](C(=O)N1CCOC[C@H]1C(=O)Nc1ccc(-c2ccc(-c3cnc([C@@H]4COCCN4C(=O)[C@H](NC(=O)C4CC4)c4ccccc4)[nH]3)cc2)cc1)c1ccccc1)C1CC1 [Compound 1]	> 9.00
COC(=O)N[C@@H](C(=O)N1CCC[C@H]1c1ncc(-c2ccc(-c3ccc(C(=O)NC[C@@H]4CCCN4C(=O)[C@@H](c4ccccc4)N4CCOCC4)cc3)cc2)[nH]1)c1ccccc1 [Compound 63]	> 9.00
O=C(N[C@@H](C(=O)N1CCOC[C@H]1C(=O)Nc1ccc(-c2ccc(-c3cnc([C@@H]4CCCN4C(=O)[C@H](NC(=O)C4CC4)c4ccccc4)[nH]3)cc2)cc1)c1ccccc1)C1CC1 [Compound 3]	> 9.00
CC(C)[C@@H](NC(=O)C1CC1)C(=O)N1CCC[C@H]1C(=O)Nc1ccc(-c2ccc(-c3cnc([C@@H]4COCCN4C(=O)[C@H](NC(=O)C4CC4)C(C)C)[nH]3)cc2)cc1 [Compound 20]	8.00 to 9.00
O=C(N[C@@H](C(=O)N1CCC[C@H]1c1ncc(-c2ccc(Sc3ccc(-c4cnc([C@@H]5CCCN5C(=O)[C@H](NC(=O)N5CCOCC5)c5ccccc5)[nH]4)cc3)cc2)[nH]1)c1ccccc1)N1CCOCC1 [Compound 51]	> 9.00
CC(C)[C@@H](NC(=O)OC(C)(C)C)C(=O)N1CCC[C@H]1c1ncc(-c2ccc(Oc3ccc(-c4cnc([C@@H]5CCCN5C(=O)[C@H](NC(=O)OC(C)(C)C)C(C)C)[nH]4)cc3)cc2)[nH]1 [Compound 48]	8.00 to 9.00
C=CC[C@H](NC(=O)OC)C(=O)N1CCC[C@H]1C(=O)Nc1ccc(-c2ccc(-c3cnc([C@@H]4CCCN4C(=O)[C@H](CC=C)NC(=O)OC)[nH]3)cc2)cc1 [Compound 75]	8.00 to 9.00
C[C@H](NC(=O)[C@@H]1CCCN1C(=O)[C@H](NC(=O)N1CCN(C)CC1)c1ccccc1)c1ccc(-c2ccc(-c3cnc([C@@H]4CCCN4C(=O)[C@H](NC(=O)N4CCN(C)CC4)c4ccccc4)[nH]3)cc2)cc1 [Compound 36]	8.00 to 9.00
CC(C)[C@@H](NC(=O)OC(C)(C)C)C(=O)N1CCC[C@H]1C(=O)Nc1ccc(-c2ccc(-c3cnc([C@@H]4COCCN4C(=O)[C@H](NC(=O)OC(C)(C)C)C(C)C)[nH]3)cc2)cc1 [Compound 10]	6.00 to 8.00
CC(C)[C@@H](NC(=O)C1CC1)C(=O)N1CCC[C@H]1c1ncc(-c2ccc(Oc3ccc(-c4cnc([C@@H]5CCCN5C(=O)[C@H](NC(=O)C5CC5)C(C)C)[nH]4)cc3)cc2)[nH]1 [Compound 53]	8.00 to 9.00
C[C@@H](NC(=O)C1CC1)C(=O)N1CCC[C@H]1C(=O)Nc1ccc(-c2ccc(-c3cnc([C@@H]4CCCN4C(=O)[C@@H](C)NC(=O)C4CC4)[nH]3)cc2)cc1 [Compound 28]	8.00 to 9.00
O=C(Nc1ccc(-c2ccc(-c3cnc([C@@H]4COCCN4C(=O)[C@H](NC(=O)N4CCOCC4)c4ccccc4)[nH]3)cc2)cc1)[C@@H]1COCCN1C(=O)[C@H](NC(=O)N1CCOCC1)c1ccccc1 [Compound 2]	8.00 to 9.00
COC(=O)N[C@H](C(=O)N1CCC[C@H]1C(=O)Nc1ccc(-c2ccc(-c3cnc([C@@H]4CCCN4C(=O)[C@@H](NC(=O)OC)C(C)C)[nH]3)cn2)cc1)C(C)C [Compound 71]	8.00 to 9.00
COC(=O)N[C@H](C(=O)N1CCC[C@H]1CNC(=O)c1ccc(-c2ccc(-c3cnc([C@@H]4CCCN4C(=O)[C@@H](NC(=O)OC)C(C)C)[nH]3)cc2)cc1)C(C)C [Compound 99]	> 9.00
CC(C)(C)OC(=O)N1CCOCC1C(=O)Nc1ccc(-c2ccc(-c3cnc([C@@H]4CCCN4C(=O)OC(C)(C)C)[nH]3)cc2)cc1 (some centres unmarked) [Compound 6]	6.00 to 8.00
COC(=O)N[C@@H](C(=O)N1CCC[C@H]1c1ncc(-c2ccc(-c3ccc(C(=O)NC[C@@H]4CCCN4C(=O)[C@@H](c4ccccc4)N(C)C)cc3)cc2)[nH]1)c1ccccc1 [Compound 65]	> 9.00
COC(=O)N[C@@H](C(=O)N[C@@H](C)c1ncc(-c2ccc(-c3ccc(C(=O)NC[C@@H]4CCCN4C(=O)[C@H](NC(=O)OC)c4ccccc4)nc3)cc2)[nH]1)c1ccccc1 [Compound 93]	> 9.00
O=C(N[C@@H](C(=O)N1CCC[C@H]1COc1ccc(-c2ccc(-c3cnc([C@@H]4CCCN4C(=O)[C@H](NC(=O)C4CC4)c4ccccc4)[nH]3)cc2)cc1)c1ccccc1)C1CC1 [Compound 31]	> 9.00
COC(=O)N[C@H](C(=O)N1CCC[C@H]1CNC(=O)c1ccc(-c2ccc(-c3cnc([C@@H]4CCCN4C(=O)[C@@H](NC(=O)OC)C(C)C)[nH]3)nc2)cc1)C(C)C [Compound 90]	8.00 to 9.00
COC(=O)N[C@H](C(=O)N1CCC[C@H]1C(=O)NCc1ccc(-c2ccc(-c3cnc([C@@H]4CCCN4C(=O)[C@@H](NC(=O)OC)[C@@H](C)OC)[nH]3)cc2)cc1)[C@@H](C)OC [Compound 106]	6.00 to 8.00

SMILES	pEC50
COC(=O)N[C@H](C(=O)N1CCC[C@H]1CNC(=O)c1ccc(-c2ccc(-c3cnc([C@@H]4CCCN4C(=O)[C@@H](NC(=O)OC)C(C)C)[nH]3)cn2)cc1)C(C)C [Compound 78]	> 9.00
COC(=O)N[C@H](C(=O)N[C@@H](C)c1ncc(-c2ccc(-c3ccc(C(=O)NC[C@@H]4CCCN4C(=O)[C@@H](NC(=O)OC)C(C)C)cc3)cc2)[nH]1)C(C)C [Compound 88]	> 9.00
[2H]C([2H])([2H])C([2H])(C([2H])([2H])[2H])C([2H])(NC(=O)OC)C(=O)N1CCC[C@H]1c1ncc(-c2ccc(-c3ccc(CNC(=O)[C@@H]4CCCN4C(=O)[C@@]([2H])(NC(=O)OC)C([2H])(C([2H])([2H])[2H])C([2H])([2H])[2H])cc3)cc2)[nH]1 (some centres unmarked) [Compound 82]	8.00 to 9.00
CC(C)(C)OC(=O)N[C@@H](C(=O)N1CCC[C@H]1C(=O)Nc1ccc(-c2ccc(-c3cnc([C@@H]4COCCN4C(=O)[C@H](NC(=O)OC(C)(C)C)c4ccccc4)[nH]3)cc2)cc1)c1ccccc1 [Compound 8]	> 9.00
COC(=O)N[C@@H](C(=O)N1CCC[C@H]1C(=O)Nc1ccc(-c2ccc(-c3cnc([C@@H]4CCCN4C(=O)[C@H](NC(=O)OC)c4ccccc4)[nH]3)cn2)cc1)c1ccccc1 [Compound 72]	> 9.00
COC(=O)N[C@@H](C(=O)N1CCC[C@H]1C(=O)Nc1ccc(-c2ccc(-c3cnc([C@@H]4CCCN4C(=O)[C@@H](c4ccccc4)N(C)C)[nH]3)cc2)cc1)c1ccccc1 [Compound 59]	> 9.00
O=C(N[C@@H](C(=O)N1CCC[C@H]1COc1ccc(-c2ccc(-c3cnc([C@@H]4CCCN4C(=O)[C@H](NC(=O)N4CCOCC4)c4ccccc4)[nH]3)cc2)cc1)c1ccccc1)N1CCOCC1 [Compound 32]	> 9.00
COC(=O)N[C@H](C(=O)N1CCC[C@H]1C(=O)N[C@@H](C)c1ccc(-c2ccc(-c3cnc([C@@H]4CCCN4C(=O)[C@@H](NC(=O)OC)C(C)C)[nH]3)cc2)cc1)C(C)C [Compound 95]	> 9.00
COC(=O)N[C@H](C(=O)N1CCC[C@H]1CNC(=O)c1ccc(-c2ccc(-c3cnc([C@@H]4CCCN4C(=O)[C@@H](NC(=O)OC)C(C)C)[nH]3)cc2)cn1)C(C)C [Compound 83]	8.00 to 9.00
C[C@H](NC(=O)[C@@H]1CCCN1C(=O)[C@H](NC(=O)C1CC1)c1ccccc1)c1ccc(-c2ccc(-c3cnc([C@@H]4CCCN4C(=O)[C@H](NC(=O)C4CC4)c4ccccc4)[nH]3)cc2)cc1 [Compound 37]	> 9.00
C[C@@H](NC(=O)C1CC1)C(=O)N1CCOC[C@H]1C(=O)Nc1ccc(-c2ccc(-c3cnc([C@@H]4COCCN4C(=O)[C@@H](C)NC(=O)C4CC4)[nH]3)cc2)cc1 [Compound 24]	6.00 to 8.00
CN1CCN(C(=O)N[C@@H](C(=O)N2CCC[C@H]2CNC(=O)c2ccc(-c3ccc(-c4cnc([C@@H]5CCCN5C(=O)[C@H](NC(=O)N5CCN(C)CC5)c5ccccc5)[nH]4)cc3)cc2)c2ccccc2)CC1 [Compound 57]	8.00 to 9.00
COC(=O)N[C@H](C(=O)N1CCC[C@H]1c1ncc(-c2ccc(Oc3cccc(-c4cnc([C@@H]5CCCN5C(=O)[C@@H](NC(=O)OC)C(C)C)[nH]4)c3)cc2)[nH]1)C(C)C [Compound 70]	> 9.00
COC(=O)N[C@@H](C(=O)N1CCC[C@H]1C(=O)NCc1ccc(-c2ccc(-c3cnc([C@@H]4CCCN4C(=O)[C@H](NC(=O)OC)c4ccccc4)[nH]3)cc2)cn1)c1ccccc1 [Compound 120]	> 9.00
COC(=O)N[C@H](C(=O)N1CCC[C@H]1CNC(=O)c1ccc(-c2ccc3c(ccc4nc([C@@H]5CCCN5C(=O)[C@@H](NC(=O)OC)C(C)C)[nH]c43)c2)cc1)C(C)C [Compound 113]	> 9.00
C[C@@H](NC(=O)OC(C)(C)C)C(=O)N1CCC[C@H]1c1ncc(-c2ccc(Oc3ccc(-c4cnc([C@@H]5CCCN5C(=O)[C@@H](C)NC(=O)OC(C)(C)C)[nH]4)cc3)cc2)[nH]1 [Compound 47]	8.00 to 9.00
O=C(N[C@@H](C(=O)N1CCC[C@H]1C(=O)NCc1ccc(-c2ccc(-c3cnc([C@@H]4CCCN4C(=O)[C@H](NC(=O)C4CC4)c4ccccc4)[nH]3)cc2)cc1)c1ccccc1)C1CC1 [Compound 43]	> 9.00
CC(C)[C@@H](NC(=O)C1CC1)C(=O)N1CCOC[C@H]1C(=O)Nc1ccc(-c2ccc(-c3cnc([C@@H]4CCCN4C(=O)[C@H](NC(=O)C4CC4)C(C)C)[nH]3)cc2)cc1 [Compound 23]	8.00 to 9.00
COC(=O)N[C@H](C(=O)N1CCC[C@H]1CNC(=O)c1ccc(-c2ccc(-c3cnc([C@@H]4CCCN4C(=O)[C@@H](NC(=O)OC)[C@@H](C)OC)[nH]3)cc2)cc1)[C@@H](C)OC [Compound 122]	> 9.00
CC(C)(C)OC(=O)N1CCC[C@H]1C(=O)Nc1ccc(-c2ccc(-c3cnc([C@@H]4COCCN4C(=O)OC(C)(C)C)[nH]3)cc2)cc1 [Compound 5]	< 6.00
